Read-outs that look alike come from different tables or passages of the source.
Assays:
NCI-H295R cells = test: H295R steroidogenesis assay; format: cell-based, human; conditions: for Effect on androgen (steroid) synthesis, in words: H295R steroidogenesis assay; for IC50 / IC20: Homo sapiens; for IC50: 48 h; for IC20: read-out: Testosterone inhibition (IC20 µM)
Method in brief: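 Human adrenocortical NCI-H295R cells exposed 48 h to compounds in 2-fold dilutions from 0.8 to 50 μM (0.1% DMSO), three independent experiments. Ten steroid hormones in medium measured by LC-MS/MS and normalized to solvent controls; viability checked by MTT.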

[1] = PBK model first-order kinetic parameters fitted to in vivo ADME data; parameters: species or system rat; conditions: PBK model parameter; for Metabolism rate in liver, Total (L/h) KMetab: metabolic clearance
[2] = Fetal chemical exposure analysis (LC-QTOF) at GD21; format: in vivo, rat
Method in brief: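 Rat dams killed at GD21; pooled fetal trunk plasma (by sex, per litter, ~90 min post-dose) and amniotic fluid stored at −80 °C. Samples extracted with acetonitrile (C-18 cleanup) and analysed by positive-ESI LC-QTOF; quantified from (M+H)+ extracted-ion chromatograms ±0.005 Da against matrix-matched plasma standards.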

[3] = parameters: method as in U.S. EPA 2012; conditions: EPI Suite, experimental preferred over modeled; ref U.S. EPA 2012; cited from earlier work
[4] = NCI-H295R, read-out: Testosterone inhibition (IC50, μM)

Row | SMILES | Effect on androgen (steroid) synthesis, in words (NCI-H295R cells) | IC50 (NCI-H295R cells; [4]) [µM] | Corticosterone, LOEC (NCI-H295R cells; multiple contrast tests) [µM] | Estradiol, LOEC (NCI-H295R cells; multiple contrast tests) [µM] | OH-Progesterone, LOEC (NCI-H295R cells; multiple contrast tests) [µM] | Fecal excretion rate from gut (L/h) KFeces [1] [L/h] | Portal GI absorption rate into liver (L/h) KAS [1] [L/h] | Urine excretion rate from kidney (L/h) KUrine [1] [L/h] | Metabolism rate in liver, Total (L/h) KMetab [1] [L/h] | log Kow [3] | further results
1 | COc1ccc(C(=CC(=O)N2CCOCC2)c2ccc(Cl)cc2)cc1OC [Dimethomorph, dimethomorph] | inhibited testosterone synthesis | > 50 | 0.8 | 0.8 | 12.5 | 2 | 1 | 0.01 | 0.3 | 2.68 | Androstenedione (relative to controls), mean (NCI-H295R cells; 0.8 µM): 0.83; Testosterone (relative to controls), mean (NCI-H295R cells; 0.8 µM): 0.88; Androstenedione (relative to controls), mean (NCI-H295R cells; 1.6 µM): 0.81; Testosterone (relative to controls), mean (NCI-H295R cells; 1.6 µM): 0.84; Androstenedione (relative to controls), mean (NCI-H295R cells; 3.1 µM): 0.80; Testosterone (relative to controls), mean (NCI-H295R cells; 3.1 µM): 0.76; Androstenedione (relative to controls), mean (NCI-H295R cells; 6.3 µM): 0.89; Testosterone (relative to controls), mean (NCI-H295R cells; 6.3 µM): 0.74; Androstenedione (relative to controls), mean (NCI-H295R cells; 12.5 µM): 0.77; Testosterone (relative to controls), mean (NCI-H295R cells; 12.5 µM): 0.68; Androstenedione (relative to controls), mean (NCI-H295R cells; 25 µM): 0.70; Testosterone (relative to controls), mean (NCI-H295R cells; 25 µM): 0.73; Androstenedione (relative to controls), mean (NCI-H295R cells; 50 µM): 0.67; Testosterone (relative to controls), mean (NCI-H295R cells; 50 µM): 0.67; IC20 (NCI-H295R cells; NCI-H295R): 2.8 µM; DHEA, LOEC (NCI-H295R cells; multiple contrast tests): 25 µM; Measured concentration in male fetuses ([2]; fetal plasma GD21, dams dosed 20 mg/kg BW per day (Study 3)): 1.35 µM
2 | N#Cc1c[nH]cc1-c1cccc2c1OC(F)(F)O2 [Fludioxonil, fludioxonil] | inhibited testosterone synthesis |  | 12.5 | 3.1 | 3.1 | 3 | 1 | 0.01 | 0.3 | 4.12 | IC50 (NCI-H295R cells; NCI-H295R cells, NA = not active up to 50μM, read-out: Testosterone inhibition (IC50)): 10.8 µM; IC20 (NCI-H295R cells; NCI-H295R cells): 1.3 µM; Androstendione, LOEC (NCI-H295R cells; multiple contrast tests): 25 µM; Testosterone, lowest observed effect concentration (LOEC) (NCI-H295R cells; multiple contrast tests): 1.6 µM; Measured concentration in male fetuses ([2]; fetal plasma GD21, dams dosed 60 mg/kg BW per day (Study 3)): 3.3 µM
3 | CC12CC1(C)C(=O)N(c1cc(Cl)cc(Cl)c1)C2=O (centres unmarked) [Procymidone, procymidone, reference compound] | inhibited the synthesis of androgens | 6 |  |  |  | 0.04 |  | 0.08 |  | 3.08 | Measured concentration in male fetuses ([2]; male, Sprague-Dawley, rat, in vivo, 40 mg/kg/day): 7.8 µM
